Measurements from patent US7405240B2, “Substituted cyclopentanes or cyclopentanones as therapeutic agents” (Allergan, Inc., priority 2006, dated 2008).
pEC50, pKi: −log10 of the molar value.

Key:
hEP2 [1] = molecular target: T1, hEP2 (Homo sapiens, UniProt P43116); experiment: cAMP assay, hEP2; format: cell-based
hEP2 [2] = molecular target: T1, hEP2; experiment: Competition binding, [3H]PGE2, human EP2 receptors; design: expressed in transfected cells; host or cells: HEK 293; settings: [3H]PGE2, HEK 293 cells stably expressing human EP2; read-out: hEP2 Ki
Procedure: Competition binding experiments were performed in a medium containing Hank's balanced salt solution, Hepes 20 mM, pH 7.3, membranes (˜60 μg protein) or 2×10^5 cells from HEK 293 cells stably expressing human EP2 receptors, [^3H]PGE2 (10 nM) and various concentrations of test compounds in a total volume of 300 μl. Reaction mixtures were incubated at 23° C. for 60 min, and were filtered over Whatman GF/B filters under vacuum. Filters were washed three times with 5 ml ice-cold buffer containing 50 mM Tris/HCl (pH 7.3). Non-specific binding was estimated in the presence of excess unlabeled PGE2 (10 μM). Binding data fitted to the binding model for a single class of binding sites, using nonlinear regression analysis. IC50 values thus obtained were converted to Ki using the equation of Ki=(IC50/(1+[L]/KD) where [L] represents PGE2 concentration (10 nM) and KD the dissociation constant for [^3H]PGE2 at human EP2 receptors (40 nM).
(§1) HEK-293 cells stably expressing the human or feline FP receptor, or EP1, EP2, or EP4 receptors were washed with TME buffer, scraped from the bottom of the flasks, and homogenized for 30 sec using a Brinkman PT 10/35 polytron. TME buffer was added to achieve a final 40 ml volume in the centrifuge tubes (the composition of TME is 100 mM TRIS base, 20 mM MgCl2, […]; 10N HCl is added to achieve a pH of 7.4).
(§2) The cell homogenate was centrifuged at 19000 r.p.m. for 20 min at 4° C. using a Beckman Ti-60 rotor. The resultant pellet was resuspended in TME buffer to give a final 1 mg/ml protein concentration, as determined by Biorad assay. Radioligand binding competition assays vs. [3H-] 17-phenyl PGF2, (5 nM) were performed in a 100 μl volume for 60 min. Binding reactions were started by adding plasma membrane fraction. The reaction was terminated by the addition of 4 ml ice-cold TRIS-HCl buffer and rapid filtration through glass fiber GF/B filters using a Brandel cell harvester. The filters were washed 3 times with ice-cold buffer and oven dried for one hour.
(§3) [^3H-] PGE2 (specific activity 180 Ci mmol) was used as the radioligand for EP receptors. [^3H] 17-phenyl PGF2, was employed for FP receptor binding studies. Binding studies employing EP1, EP2, EP4 and FP receptors were performed in duplicate in at least three separate experiments. A […] assay volume was used. Incubations were for 60 min at 25° C. and were terminated by the addition of 4 ml of ice-cold 50 mM TRIS-HCl, followed by rapid filtration through Whatman GF/B filters and three additional 4 ml washes in a cell harvester (Brandel). Competition studies were performed using a final concentration of 5 nM [^3H]-PGE2, or 5 nM [^3H] 17-phenyl PGF2, and non-specific binding determined with 10^−5M of unlabeled PGE2, or 17-phenyl PGF2α, according to receptor subtype studied.

hEP4 [3] = molecular target: T2, hEP4 (Homo sapiens, UniProt P35408); experiment: Radioligand binding, EP4 receptor; design: expressed in transfected cells; host or cells: HEK-293; settings: [3H]PGE2, HEK-293 cells expressing EP4
Procedure: as §1, §2, §3

hEP2 [4] = molecular target: T1, hEP2; experiment: FLIPR calcium signal, hEP2; format: cell-based; design: expressed in transfected cells; host or cells: HEK-293(EBNA); settings: HEK-293(EBNA) cells expressing hEP2/Gqs5
Procedure: (§4) Methods for FLIPR™ Studies
(§5) HEK-293(EBNA) cells, stably expressing one type or subtype of recombinant human prostaglandin receptors (prostaglandin receptors expressed: hDP/Gqs5; hEP1; hEP2/Gqs5; hEP3A/Gqi5; hEP4/Gqs5; hFP; hIP; hTP), were cultured in 100 mm culture dishes in high-glucose DMEM medium containing 10% fetal bovine serum, 2 mM 1-glutamine, 250 μg/ml geneticin (G418) and 200 μg/ml hygromycin B as selection markers, and 100 units/ml penicillin G, 100 μg/ml streptomycin and 0.25 μg/ml amphotericin B.
(§6) Cells were seeded at a density of 5×10^4 cells per well in Biocoat® Poly-D-lysine-coated black-wall, clear-bottom 96-well plates (Becton-Dickinson) and allowed to attach overnight in an incubator at 37° C. Cells were then washed two times with HBSS-HEPES buffer (Hanks Balanced Salt Solution without bicarbonate and phenol red, 20 mM HEPES, pH 7.4) using a Denley Cellwash plate washer (Labsystems). After 45 minutes of dye-loading in the dark, using the calcium-sensitive dye Fluo-4 AM at a final concentration of 2 μM, plates were washed four times with HBSS-HEPES buffer to remove excess dye leaving 100 μl in each well. Plates were re-equilibrated to 37° C. for a few minutes.
(§7) Cells were excited with an Argon laser at 488 nm, and emission was measured through a 510-570 nm bandwidth emission filter (FLIPR™, Molecular Devices, Sunnyvale, Calif.). Drug solution was added in a 50 μl volume to each well to give the desired final concentration. The peak increase in fluorescence intensity was recorded for each well. On each plate, four wells each served as negative (HBSS-HEPES buffer) and positive controls (standard agonists: BW245C (hDP); PGE2 (hEP1; hEP2/Gqs5; hEP3A/Gqi5; hEP4/Gqs5); PGF2α (hFP); carbacyclin (hIP); U-46619 (hTP), depending on receptor). The peak fluorescence change in each drug-containing well was then expressed relative to the controls.
(§8) Compounds were tested in a high-throughput (HTS) or concentration-response (CoRe) format. In the HTS format, forty-four compounds per plate were examined in duplicates at a concentration of 10^−5 M. To generate concentration-response curves, four compounds per plate were tested in duplicates in a concentration range between 10^−5 and 10^−11 M. The duplicate values were averaged. In either, HTS or CoRe format each compound was tested on at least 3 separate plates using cells from different passages to give an n≧3.

hEP4 [5] = molecular target: T2, hEP4; experiment: FLIPR calcium signal, hEP4; format: cell-based; design: expressed in transfected cells; host or cells: HEK-293(EBNA); settings: HEK-293(EBNA) cells expressing hEP4/Gqs5
Procedure: as §4, §5, §6, §7, §8

T1 sequence (P43116 whole entry): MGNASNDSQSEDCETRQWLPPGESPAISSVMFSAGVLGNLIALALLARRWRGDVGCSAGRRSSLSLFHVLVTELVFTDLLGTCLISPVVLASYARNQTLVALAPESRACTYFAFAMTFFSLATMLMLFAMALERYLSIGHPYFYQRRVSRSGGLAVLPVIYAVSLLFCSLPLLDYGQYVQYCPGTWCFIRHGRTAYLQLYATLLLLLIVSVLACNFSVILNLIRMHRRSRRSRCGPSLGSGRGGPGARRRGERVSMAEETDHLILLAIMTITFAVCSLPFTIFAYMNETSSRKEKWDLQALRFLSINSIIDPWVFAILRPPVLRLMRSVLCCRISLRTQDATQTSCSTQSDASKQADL
T2 sequence (P35408 whole entry): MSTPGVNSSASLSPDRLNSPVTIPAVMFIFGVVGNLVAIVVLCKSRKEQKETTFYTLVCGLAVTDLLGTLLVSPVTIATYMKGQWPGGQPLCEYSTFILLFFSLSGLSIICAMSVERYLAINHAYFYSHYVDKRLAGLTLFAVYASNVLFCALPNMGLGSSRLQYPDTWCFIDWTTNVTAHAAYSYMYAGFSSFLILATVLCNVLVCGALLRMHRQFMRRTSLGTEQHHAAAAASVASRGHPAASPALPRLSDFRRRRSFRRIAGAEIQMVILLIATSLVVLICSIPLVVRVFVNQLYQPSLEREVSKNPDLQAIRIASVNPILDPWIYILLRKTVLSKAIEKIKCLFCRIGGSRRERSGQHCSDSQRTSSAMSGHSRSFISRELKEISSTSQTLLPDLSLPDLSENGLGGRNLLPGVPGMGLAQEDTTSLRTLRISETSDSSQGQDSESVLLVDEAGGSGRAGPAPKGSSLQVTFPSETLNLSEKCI

| SMILES | pEC50 (hEP2 [1]) | pKi (hEP2 [2]) | pKi (hEP4 [3]) | pEC50 (hEP2 [4]) | pEC50 (hEP4 [5]) |
| --- | --- | --- | --- | --- | --- |
| O=C(O)CCC/C=C\C[C@@H]1[C@@H](COc2ccc3ccccc3c2)[C@H](O)C[C@H]1Cl [Example 17, (Z)-7-[(1R,2S,3R,5R)-5-Chloro-3-hydroxy-2-(naphthalen-2-yloxymethyl)-cyclopentyl]-hept-5-enoic acid] | 7.57 | 7.21 | 6.29 | 6.52 | 5.47 |
| O=C(O)CCC/C=C\C[C@@H]1[C@@H](COc2ccccc2CCO)[C@H](O)C[C@H]1Cl [Example 61, (Z)-7-{(1R,2S,3R,5R)-5-Chloro-3-hydroxy-2-[2-(2-hydroxy-ethyl)-phenoxymethyl]-cyclopentyl}-hept-5-enoic acid] | 6.89 | 5.41 | – | 5.22 | < 5.00 |
| Cc1cc(OC[C@@H]2[C@@H](C/C=C\CCCC(=O)O)[C@H](Cl)C[C@H]2O)cc(C)c1C [Example 38, (Z)-7-[(1R,2S,3R,5R)-5-Chloro-3-hydroxy-2-(3,4,5-trimethyl-phenoxymethyl)-cyclopentyl]-hept-5-enoic acid] | 8.82 | 7.60 | 6.22 | 8.64 | < 5.00 |
| Cc1ccc(C)c(OC[C@@H]2[C@@H](C/C=C\CCCC(=O)O)[C@H](Cl)C[C@H]2O)c1 [Example 34, (Z)-7-[(1R,2S,3R,5R)-5-Chloro-2-(2,5-dimethyl-phenoxymethyl)-3-hydroxy-cyclopentyl]-hept-5-enoic acid] | 8.62 | 6.76 | 5.96 | 7.29 | < 5.00 |
| Cc1cc(OC[C@@H]2[C@@H](C/C=C\CCCC(=O)O)[C@H](Cl)C[C@H]2O)cc(C)c1Cl [Example 39, (Z)-7-[(1R,2S,3R,5R)-5-Chloro-2-(4-chloro-3,5-dimethyl-phenoxymethyl)-3-hydroxy-cyclopentyl]-hept-5-enoic acid] | 9.15 | 7.96 | 6.55 | 8.00 | < 5.00 |
| O=C(O)CCC/C=C\C[C@@H]1[C@@H](COc2cccc(O)c2)[C@H](O)C[C@H]1Cl [Example 30, (Z)-7-[(1R,2S,3R,5R)-5-Chloro-3-hydroxy-2-(3-hydroxy-phenoxymethyl)-cyclopentyl]-hept-5-enoic acid] | 7.62 | 6.22 | 5.30 | 6.95 | 5.93 |
| COc1cccc(OC[C@@H]2[C@@H](C/C=C\CCCC(=O)O)[C@H](Cl)C[C@H]2O)c1 [Example 28, (Z)-7-[(1R,2S,3R,5R)-5-Chloro-3-hydroxy-2-(3-methoxy-phenoxymethyl)-cyclopentyl]-hept-5-enoic acid] | 7.70 | 6.56 | 5.78 | 6.61 | 5.43 |
| O=C(O)CCCCCC[C@@H]1[C@@H](COc2ccc3ccccc3c2)[C@H](O)C[C@H]1Cl [Example 18, (Z)-7-[(1R,2S,3R,5R)-5-Chloro-3-hydroxy-2-(naphthalen-2-yloxymethyl)-cyclopentyl]-heptanoic acid] | 7.19 | 7.05 | 6.01 | 6.34 | 5.20 |
| O=C(O)CCCCCC[C@@H]1[C@@H](COc2cccc3ccccc23)[C@H](O)C[C@H]1Cl [Example 20, (Z)-7-[(1R,2S,3R,5R)-5-Chloro-3-hydroxy-2-(naphthalen-1-yloxymethyl)-cyclopentyl]-heptanoic acid] | 7.55 | 6.79 | 6.45 | 7.09 | 5.56 |
| O=C(O)CCC/C=C\C[C@@H]1[C@@H](COc2ccc(CCO)cc2)[C@H](O)C[C@H]1Cl [Example 63, (Z)-7-{(1R,2S,3R,5R)-5-Chloro-3-hydroxy-2-[4-(2-hydroxy-ethyl)-phenoxymethyl]-cyclopentyl}-hept-5-enoic acid] | – | 5.70 | – | < 5.00 | < 5.00 |
| CC(C)c1cccc(OC[C@@H]2[C@@H](C/C=C\CCCC(=O)O)[C@H](Cl)C[C@H]2O)c1 [Example 26, (Z)-7-[(1R,2S,3R,5R)-5-Chloro-3-hydroxy-2-(3-isopropyl-phenoxymethyl)-cyclopentyl]-hept-5-enoic acid] | 8.15 | 6.82 | 6.01 | 7.39 | 5.19 |
| O=C(O)CCC/C=C\C[C@@H]1[C@@H](COc2ccccc2CO)[C@H](O)C[C@H]1Cl [Example 55, (Z)-7-[(1R,2S,3R,5R)-5-Chloro-3-hydroxy-2-(2-hydroxymethyl-phenoxymethyl)-cyclopentyl]-hept-5-enoic acid] | 6.65 | 5.39 | 5.82 | 5.02 | 4.91 |
| CCCC(O)c1cccc(OC[C@@H]2[C@@H](C/C=C\CCCC(=O)O)[C@H](Cl)C[C@H]2O)c1 (stereo partly drawn) [Example 52, (Z)-7-{(1R,2S,3R,5R)-5-Chloro-3-hydroxy-2-[3-(1-hydroxy-butyl)-phenoxymethyl]-cyclopentyl}-hept-5-enoic acid] | 7.24 | 6.02 | < 5.00 | 6.63 | < 5.00 |
| O=C(O)CCC/C=C\C[C@@H]1[C@@H](COc2cccc(CCO)c2)[C@H](O)C[C@H]1Cl [Example 62, (Z)-7-{(1R,2S,3R,5R)-5-Chloro-3-hydroxy-2-[3-(2-hydroxy-ethyl)-phenoxymethyl]-cyclopentyl}-hept-5-enoic acid] | 7.74 | 6.79 | – | 5.71 | < 5.00 |
| Cc1ccc(OC[C@@H]2[C@@H](C/C=C\CCCC(=O)O)[C@H](Cl)C[C@H]2O)c(C)c1 [Example 33, (Z)-7-[(1R,2S,3R,5R)-5-Chloro-2-(2,4-dimethyl-phenoxymethyl)-3-hydroxy-cyclopentyl]-hept-5-enoic acid] | 7.14 | 6.21 | – | 6.56 | 5.14 |
